Reference: PMC4464424, “Peptide–polymer ligands for a tandem WW-domain, an adaptive multivalent protein–protein interaction: lessons on the thermodynamic fitness of flexible ligands” (Beilstein Journal of Organic Chemistry, 2015)
Like-named read-outs stand apart in the source and are kept apart here. Ends that are not written are not given here.

T1: tandem WW domain of FBP21 (Homo sapiens, UniProt O75554)
T1 construct: multivalent peptide-polymer conjugates and the tandem WW domain of protein FBP21 determined at 8 °C by ITC measurements; made in house; host or cells: E. coli BL21 (DE3)
T1 sequence (O75554 122-196 limits assumed): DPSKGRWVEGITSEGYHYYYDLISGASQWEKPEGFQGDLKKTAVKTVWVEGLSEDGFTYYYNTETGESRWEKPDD

T2: Dex-1 (also: 3 peptides conjugated to 10 kDa dextran)
T2 chain: CGPPPRGPPPR-NH2

T3: Dex-2 (also: 6 peptides conjugated to 10 kDa dextran)
T3 chain: CGPPPRGPPPR-NH2

T4: pHPMA-2 (also: 9 peptides conjugated to pHPMA polymer)
T4 chain: CGPPPRGPPPR-NH2

T5: Dex-3 (also: 8 peptides conjugated to 50 kDa dextran)
T5 chain: CGPPPRGPPPR-NH2

T6: pHPMA-1 (also: 6 peptides conjugated to pHPMA polymer)
T6 chain: CGPPPRGPPPR-NH2

T7: hPG-1 (also: 3 peptides conjugated to hyperbranched polyglycerol)
T7 chain: CGPPPRGPPPR-NH2

T8: P1
T8 chain: GPPPRGPPPR-NH2


Tests used:
[1] = target: T1, tandem WW domain of FBP21; assay: Isothermal titration calorimetry (ITC) of peptide–polymer conjugates with tandem WW domain; assay type: binding; conditions: for Binding stoichiometry (peptide ligands per protein receptor): ratio of peptide ligand molecules relative to each protein binding site
Experimental: Binding studies with peptide–polymer conjugates were conducted employing isothermal titration calorimetry (ITC). This method enables the determination of the binding affinity of the multivalent ligands and elucidates the composition of the free energy of binding from the enthalpic and entropic contributions. In addition, the method can be used to determine the stoichiometry of the formed protein–ligand complex indicating the ratio of peptide ligand molecules relative to each protein binding site thereby giving valuable insights into the multivalency of binding and/or the degree of crosslinking. Thus, the method enables the identification of polymer–protein aggregates containing several polymers and proteins in a complex. No precipitation of the multicomponent aggregates that interfered with ITC measurements was observed during the experiments.
ITC-analysis (Figure 2) of the binding of multivalent peptide–polymer conjugates yielded KD values either corresponding to the polymer concentration or relative to the overall peptide concentration (N*KD). […] Binding in all cases was driven mainly by enthalpy, which clearly outweighed the observed entropy loss. In the seven peptide–polymer conjugates investigated, increased loading density of ligands led consistently to increased affinity of the multivalent ligand (Table 1). The most significant difference between dextran and the two other polymer carriers was the stoichiometry of the formed peptide-polymer–protein complex. […] Corresponding to the observed colloidal suspension/dispersion the stoichiometry of peptide ligands per protein receptor resulting from the ITC experiments was >2 for each of either pHPMA or hPG-based material, most pronounced for pHPMA with n = 2.6–2.8.
Figure 2 Representative ITC-measurements conducted at 8 °C with the peptide–polymer conjugates A) pHPMA-1 and B) Dex-2 showing an increase in affinity for the interaction of Dex-2 with the FBP21 tandem WW domains. […]
Isothermal Titration Calorimetry (ITC) Experiments
All samples for ITC were prepared with the phosphate buffer used for protein purification. A 10 mM stock solution of the peptide polymer conjugate in PBS was prepared and adjusted to pH 7.4 with a 50 mM NaOH solution in PBS. Aliquots of the stock solution were diluted to the final concentration of 1.5-2 mM with PBS.
Proteins were expressed as His- or GST-tagged fusion constructs in E.coli BL21 (DE3), purified by the corresponding affinity matrices, thrombin cleaved and applied to a gel filtration column (superdex-75) at 50 mM phosphate, 150 mM NaCl, 1 mM EDTA, pH 6.5 or 1xPBS, 1 mM EDTA, pH 7.4. Proteins were concentrated by Cen-trifugal Filter Units (regenerated cellulose, 3 kDa cut-off, Millipore) if necessary.
2 µl aliquots of peptide-polymer conjugates were titrated into a 50-70 µM protein solution inside the calorimeter cell (200 µl) while the reaction mixture was continuously stirred at 1000 rpm. Ligand concentration in the titration syringe was typically in 20-time excess corresponding to protein. Time intervals between injections were adjusted to 240 s which was sufficient for the heat signal to return to baseline level. In control experiments peptide-polymer conjugates were injected into […]
The heats of dilution were subtracted from the heats determined in the corresponding protein-ligand binding experiments. Automated baseline adjustment and peak integration were accomplished with the public-domain software NITPIC [5]. Estimation of best-fit parameter values by nonlinear least-squares fitting and calculation of 95% confidence intervals were performed with the public-domain software SEDPHAT [6].
Polymer-attached peptides were considered as monovalent ligands, and the tandem WW protein as receptor molecule with two similar independent binding sites. Binding was analysed in terms of simple hetero-association model. Corresponded calculation gives the microscopic binding constants that characterise the binding affinity of […]

[2] = target: T1, tandem WW domain of FBP21; conditions: peptide alone, read-out: dissociation constant (KD); cited from earlier work
Description: ITC-analysis (Figure 2) of the binding of multivalent peptide–polymer conjugates yielded KD values either corresponding to the polymer concentration or relative to the overall peptide concentration (N*KD).

Dex-1 = target: T2, Dex-1; assay: ITC
Dex-2 = target: T3, Dex-2; assay: ITC
pHPMA-2 = target: T4, pHPMA-2; assay: ITC
Dex-3 = target: T5, Dex-3; assay: ITC
pHPMA-1 = target: T6, pHPMA-1; assay: ITC
hPG-1 = target: T7, hPG-1; assay: ITC
P1 = target: T8, P1; assay: ITC
[3] = ITC at 8 °C, PBS pH 7.4, 2 µl aliquots of conjugate titrated into 50-70 µM protein, KD related to polymer concentration, 1:1 binding model, read-out: KD (binding affinities of peptide–polymer conjugates)

Row | Molecule | Kd [1, 3] [µM] | Binding stoichiometry (peptide ligands per protein receptor) ([1]; ITC at 8 °C) | further results
1 | Ac-GPPPRGPPPR-NH2 [Ac-P1] | > 1000 | – | Kd ([1]; ITC at 8 °C, PBS pH 7.4, related to overall peptide concentration, N = number of ligands per polymer, read-out: Rel. KD = N*KD (binding affinity related to overall peptide concentration)): > 1000 µM
2 | CGPPPRGPPPR [Dex-1] | 7 ± 1.2 | 1.8 | –
3 | CGPPPRGPPPR [Dex-2] | – | 1.4 | –
4 | CGPPPRGPPPR [hPG-2, hyperbranched polyglycerol modified with maleimido groups, coupled with 4 copies of P2] | 5 ± 1.3 | 2.4 | –
5 | CGPPPRGPPPR [pHPMA-2, poly(N-(2-hydroxypropyl)methacrylamide) NCL-polymer conjugated with 9 copies of P2 by native chemical ligation] | – | 2.8 | –
6 | GPPPRGPPPR-NH2 [P1] | – | – | Kd [2]: > 1000 µM; Kd ([1]; monovalent ligand, tandem WW-domain of FBP21, as stated in the abstract, read-out: KD): > 1000 µM
7 | FBP21 tandem WW (protein) DPSKGRWVEGITSEGYHYYYDLISGASQWEKPEGFQGDLKKTAVKTVWVEGLSEDGFTYYYNTETGESRWEKPDD | – | – | Kd (Dex-1): 7 µM; Kd (Dex-2): 1.2 µM; Kd (pHPMA-2): 3.3 µM; Kd (Dex-3): 1.6 µM; Kd (pHPMA-1): 5 µM; Kd (hPG-1): 6.3 µM; Kd (P1): > 1000 µM

More lines, main results first:

Row | Kd [1, 3] [µM] | Binding stoichiometry (peptide ligands per protein receptor) ([1]; ITC at 8 °C) | Molecule | further results
8 | – | 1.3 | CGPPPRGPPPR [Dex-3] | –
9 | – | 2.3 | CGPPPRGPPPR [hPG-1, hyperbranched polyglycerol modified with maleimido groups, coupled with 3 copies of P2] | –
10 | 5 ± 0.8 | 2.6 | CGPPPRGPPPR [pHPMA-1, poly(N-(2-hydroxypropyl)methacrylamide) NCL-polymer conjugated with 6 copies of P2 by native chemical ligation] | –
